Measured values reported in US12331068B2, “Compositions and methods for inhibiting CD73” (Peloton Therapeutics, Inc., priority 2018, dated 2025).

How the values were obtained:
Human CD73 = target: T1, Human CD73 (Homo sapiens, UniProt P21589); assay: CD73 Enzyme Assay (EnzChek PNP/MESG kinetic readout of AMP hydrolysis); type: biochemical; details: 0.25 nM hCD73, 25 μM AMP; read-out: CD73 Enzyme Assay IC50
T1 construct: purchased R&D Systems; host or cells: CHO cells
T1 sequence (P21589 27-549): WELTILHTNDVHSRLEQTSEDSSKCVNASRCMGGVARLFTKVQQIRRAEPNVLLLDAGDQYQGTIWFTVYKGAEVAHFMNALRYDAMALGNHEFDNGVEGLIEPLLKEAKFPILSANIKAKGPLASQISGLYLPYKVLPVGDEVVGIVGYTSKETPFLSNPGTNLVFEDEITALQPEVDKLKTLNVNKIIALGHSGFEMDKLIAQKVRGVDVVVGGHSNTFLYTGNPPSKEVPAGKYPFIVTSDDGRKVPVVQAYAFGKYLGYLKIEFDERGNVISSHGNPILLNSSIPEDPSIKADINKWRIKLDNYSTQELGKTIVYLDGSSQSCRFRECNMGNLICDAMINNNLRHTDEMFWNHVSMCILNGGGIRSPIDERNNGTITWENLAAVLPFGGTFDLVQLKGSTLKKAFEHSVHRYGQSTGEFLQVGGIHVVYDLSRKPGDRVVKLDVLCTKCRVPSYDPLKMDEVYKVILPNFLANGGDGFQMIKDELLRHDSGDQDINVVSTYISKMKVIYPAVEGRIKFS
Experimental: A compound of the present disclosure (5 μL) was transferred to a 384-well assay plate. The compound was added in a 15 point, 3-fold serial dilution (300 μM to 0.0002 μM) in DMSO. […] The plate was immediately placed in a plate reader (Synergy 2 or Spark 10), and a reading was taken every minute for 10 to 20 minutes in a kinetic run at 360 nm. The linear portion of the curve was used to determine the observed rate (initial velocity). Low signal controls containing 100 μM adenosine 5′-(α,β-methylene) diphosphate and high signal controls containing no compound were measured for each plate.
IC50 values were calculated using Dotmatics template equation for 4-parameter fit. Results are expressed as % inhibition using the following equation: […]

[1] = target: T2, CD73 on U138 human neuroglioma cells (Homo sapiens, UniProt P21589); assay: CD73 Cell-Based Assay (inorganic phosphate from AMP, malachite green); details: AMP substrate, 2 hours at 37° C., read-out: CD73 Cell-Based assay IC50
T2 construct: U138 cells were obtained from ATCC and cultured in DMEM with 10% FBS; host or cells: U138 human neuroglioma cells
T2 sequence (P21589 27-549): T1 sequence (P21589 27-549)
Experimental: U138 human neuroglioma cells were used in these experiments. U138 cells were obtained from ATCC and cultured in DMEM with 10% FBS. 2500 cells were seeded into 96-well plate with 100 μL of media the day before the experiment. […] After washing, 100 μL of buffer was added to each well, then 100 μL of a mixture of AMP substrate (200 μM) and diluted compound was added to each well. The cells were incubated at 37° C. (with 5% CO2) for 2 hours. 50 μL of supernatant was transferred to a 96-well assay plate and the concentration of inorganic phosphate was determined using malachite green reagent (R&D System; Cat: DY996).

Row | Compound | IC50 (Human CD73) | IC50 [1]
1 | C[C@@H](Nc1c(C#N)c(Cl)nc2c1ccn2[C@@H]1O[C@H](CS(=O)(=O)CP(=O)(O)O)[C@@H](O)[C@H]1O)c1ccc(F)cc1 [Compound 27, (((((2S,3S,4R,5R)-5-(6-chloro-5-cyano-4-(((R)-1-(4-fluorophenyl)ethyl)amino)-1H-pyrrolo[2,3-b]pyridin-1-yl)-3,4-dihydroxytetrahydrofuran-2-yl)methyl)sulfonyl)methyl)phosphonic acid] | < 10 nM | < 10 nM
2 | N#Cc1c(Cl)nc2c(ccn2[C@@H]2O[C@H](COP(=O)(O)CP(=O)(O)O)[C@@H](O)[C@H]2O)c1NC1CC2CC2C1 (stereo partly drawn) [Compound 28] | < 10 nM | < 10 nM
3 | N#Cc1c(Cl)nc2c(ccn2[C@@H]2O[C@H](COP(=O)(O)CP(=O)(O)O)[C@@H](O)[C@H]2O)c1N1CC2CC2C1 (stereo partly drawn) [Compound 29] | < 10 nM | < 10 nM
4 | N#Cc1c(Cl)nc2c(ccn2[C@@H]2O[C@H](CS(=O)(=O)CP(=O)(O)O)[C@@H](O)[C@H]2O)c1NC1CC2CC2C1 (stereo partly drawn) [Compound 33] | < 10 nM | < 10 nM
5 | C[C@@H](Nc1c(C#N)c(Cl)nc2c1ccn2[C@@H]1O[C@H](COP(=O)(O)CP(=O)(O)O)[C@@H](O)[C@H]1O)c1ccc(F)cc1 [Compound 34] | < 10 nM | < 10 nM
6 | C[C@H](Nc1c(C#N)c(Cl)nc2c1ccn2[C@@H]1O[C@H](COP(=O)(O)CP(=O)(O)O)[C@@H](O)[C@H]1O)c1ccc(F)cc1 [Compound 35] | < 10 nM | < 10 nM
7 | N#Cc1c(Cl)nc2c(ccn2[C@@H]2O[C@H](COP(=O)(O)CP(=O)(O)O)[C@@H](O)[C@H]2O)c1NC1CCC1 [Compound 36] | < 10 nM | < 10 nM
8 | N#Cc1c(Cl)nc2c(ccn2[C@@H]2O[C@H](COP(=O)(O)CP(=O)(O)O)[C@@H](O)[C@H]2O)c1N1CCC(F)(F)C1 [Compound 37] | < 10 nM | < 10 nM
9 | NC(=O)c1c(Cl)nc2c(ccn2C2O[C@H](COCP(=O)(O)O)[C@@H](O)[C@H]2O)c1NC1CCCC1 (stereo partly drawn) [Compound 39] | < 10 nM | 10 to 100 nM
10 | N#Cc1c(Cl)nc2c(ccn2[C@@H]2O[C@H](COP(=O)(O)CP(=O)(O)O)[C@@H](O)[C@H]2O)c1N1CC2CCCC2C1 (stereo partly drawn) [Compound 43] | < 10 nM | < 10 nM
11 | Cc1nc2c(ccn2[C@@H]2O[C@H](COCP(=O)(O)O)[C@@H](O)[C@H]2O)c(NC2CCCC2)c1C#N [Compound 44] | < 10 nM | < 10 nM
12 | N#Cc1c(Cl)nc2c(ccn2[C@@H]2O[C@H](COCP(=O)(O)O)[C@@H](O)[C@H]2O)c1N[C@@H]1CCC(F)(F)C1 [Compound 46] | < 10 nM | < 10 nM
13 | N#Cc1c(Cl)nc2c(ccn2[C@@H]2O[C@H](COP(=O)(O)CP(=O)(O)O)[C@@H](O)[C@H]2O)c1NC1CC(F)(F)C1 [Compound 47] | < 10 nM | < 10 nM
14 | N#Cc1cnc2c(ccn2[C@@H]2O[C@H](COP(=O)(O)CP(=O)(O)O)[C@@H](O)[C@H]2O)c1NC1CCCC1 [Compound 48] | < 10 nM | < 10 nM
15 | Cc1nc2c(ccn2[C@@H]2O[C@H](COP(=O)(O)CP(=O)(O)O)[C@@H](O)[C@H]2O)c(NC2CCCC2)c1C#N [Compound 49] | < 10 nM | < 10 nM
16 | N#Cc1c(Cl)nc2c(ccn2[C@@H]2O[C@H](CO[C@H](CO)P(=O)(O)O)[C@@H](O)[C@H]2O)c1N1CC2CCCC2C1 (stereo partly drawn) [Compound 50, ((1S)-1-(((2R,3S,4R,5R)-5-(6-chloro-5-cyano-4-(hexahydrocyclopenta[c]pyrrol-2 (1H)-yl)-1H-pyrrolo[2,3-b]pyridin-1-yl)-3,4-dihydroxytetrahydrofuran-2-yl)methoxy)-2-hydroxyethyl)phosphonic acid] | < 10 nM | < 10 nM
17 | N#Cc1c(Cl)nc2c(ccn2[C@@H]2O[C@H](COC(CO)P(=O)(O)O)[C@@H](O)[C@H]2O)c1N1CC2CCCC2C1 (stereo partly drawn) [Compound 51] | < 10 nM | < 10 nM

Row | Compound | IC50 (Human CD73) | IC50 [1]
18 | N#Cc1c(Cl)nc2c(ncn2[C@@H]2O[C@H](COCP(=O)(O)O)[C@@H](O)[C@H]2O)c1NC1CCCC1 [Compound 55, ((((2R,3S,4R,5R)-5-(5-chloro-6-cyano-7-(cyclopentylamino)-3H-imidazo[4,5-b]pyridin-3-yl)-3,4-dihydroxytetrahydrofuran-2-yl)methoxy)methyl)phosphonic acid] | < 10 nM | < 10 nM
19 | N#Cc1c(Cl)nc2c(ncn2[C@@H]2O[C@H](COCP(=O)(O)O)[C@@H](O)[C@H]2O)c1NC1CC2CC2C1 (stereo partly drawn) [Compound 56] | < 10 nM | < 10 nM
20 | N#Cc1c(Cl)nc2c(ncn2[C@@H]2O[C@H](COCP(=O)(O)O)[C@@H](O)[C@H]2O)c1N1CC2CCCC2C1 (stereo partly drawn) [Compound 57] | < 10 nM | < 10 nM
21 | N#Cc1c(Cl)nc2c(ncn2[C@@H]2O[C@H](COCP(=O)(O)O)[C@@H](O)[C@H]2O)c1N1CC2CC2C1 (stereo partly drawn) [Compound 58] | < 10 nM | < 10 nM
22 | N#Cc1c(Cl)nc2c(ccn2[C@@H]2O[C@H](COCP(=O)(O)O)[C@@H](O)[C@H]2O)c1N1CC[C@H](F)C1 [Compound 60] | < 10 nM | < 10 nM
23 | N#Cc1c(Cl)nc2c(cnn2[C@@H]2O[C@H](COCP(=O)(O)O)[C@@H](O)[C@H]2O)c1N1CC2CCCC2C1 (stereo partly drawn) [Compound 61] | < 10 nM | < 10 nM
24 | N#Cc1c(Cl)nc2c(cnn2[C@@H]2O[C@H](COCP(=O)(O)O)[C@@H](O)[C@H]2O)c1N1CCC(F)(F)C1 [Compound 62, ((((2R,3S,4R,5R)-5-(6-chloro-5-cyano-4-(3,3-difluoropyrrolidin-1-yl)-1H-pyrazolo[3,4-b]pyridin-1-yl)-3,4-dihydroxytetrahydrofuran-2-yl)methoxy)methyl)phosphonic acid] | < 10 nM | < 10 nM
25 | N#Cc1c(Cl)nc2c(ncn2[C@@H]2O[C@H](COP(=O)(O)CP(=O)(O)O)[C@@H](O)[C@H]2O)c1N1CC2CC2C1 (stereo partly drawn) [Compound 63] | < 10 nM | < 10 nM
26 | N#Cc1c(Cl)nc2c(ccn2[C@@H]2O[C@H](COCP(=O)(O)O)[C@@H](O)[C@H]2O)c1N1CC(F)(F)C1 [Compound 65] | < 10 nM | < 10 nM
27 | N#Cc1c(Cl)nc2c(ccn2[C@@H]2O[C@H](COCP(=O)(O)O)[C@@H](O)[C@H]2O)c1N1CC[C@@H](F)C1 [Compound 66] | < 10 nM | < 10 nM
28 | N#Cc1c(Cl)nc2c(ccn2[C@@H]2O[C@H](COCP(=O)(O)O)[C@@H](O)[C@H]2O)c1N1C[C@@H](F)[C@@H](F)C1 [Compound 67, ((((2R,3S,4R,5R)-5-(6-chloro-5-cyano-4-((3S,4R)-3,4-difluoropyrrolidin-1-yl)-1H-pyrrolo[2,3-b]pyridin-1-yl)-3,4-dihydroxytetrahydrofuran-2-yl)methoxy)methyl)phosphonic acid] | < 10 nM | < 10 nM
29 | N#Cc1c(Cl)nc2c(ccn2[C@@H]2O[C@H](COCP(=O)(O)O)[C@@H](O)[C@H]2O)c1N1C[C@@H](F)[C@H](F)C1 [Compound 68] | < 10 nM | < 10 nM
30 | N#Cc1c(Cl)nc2c(cnn2[C@@H]2O[C@H](COCP(=O)(O)O)[C@@H](O)[C@H]2O)c1NC1CCCC1 [Compound 69, ((((2R,3S,4R,5R)-5-(6-chloro-5-cyano-4-(cyclopentylamino)-1H-pyrazolo[3,4-b]pyridin-1-yl)-3,4-dihydroxytetrahydrofuran-2-yl)methoxy)methyl)phosphonic acid] | < 10 nM | < 10 nM
31 | N#Cc1c(Cl)nc2c(cnn2[C@@H]2O[C@H](COCP(=O)(O)O)[C@@H](O)[C@H]2O)c1NC1CC2CC2C1 (stereo partly drawn) [Compound 70] | < 10 nM | < 10 nM
32 | N#Cc1c(Cl)nc2c(cnn2[C@@H]2O[C@H](COCP(=O)(O)O)[C@@H](O)[C@H]2O)c1N1CC2CC2C1 (stereo partly drawn) [Compound 71] | < 10 nM | < 10 nM
33 | N#Cc1c(Cl)nc2c(cnn2[C@@H]2O[C@H](COP(=O)(O)CP(=O)(O)O)[C@@H](O)[C@H]2O)c1N1CC2CC2C1 (stereo partly drawn) [Compound 72] | < 10 nM | < 10 nM
